Test results as given in BindingDB's records for doi:10.1021/jm00080a018 (Toyo Jozo, 1992).
pIC50: −log10 of the molar value.

Target: Adenosylhomocysteinase (Oryctolagus cuniculus)
Assay: Inhibitory effect against S-adenosyl-L-homocysteine hydrolase of rabbit erythrocyte.

Row | SMILES | pIC50
1 | C=CC1=C[C@@H](n2cnc3c(N)ncnc32)[C@H](O)[C@@H]1O | < 4.41
2 | CC1=C[C@@H](n2cnc3c(N)ncnc32)[C@H](O)[C@@H]1O | < 4.39
3 | Nc1ncnc2c1ncn2[C@@H]1C=C(CF)[C@@H](O)[C@H]1O | < 4.42

Results, then the compound that gave them:

Row | pIC50 | SMILES
4 | < 4.45 | Nc1ncnc2c1ncn2[C@@H]1C=C(CCl)[C@@H](O)[C@H]1O
5 | < 4.47 | CSCC1=C[C@@H](n2cnc3c(N)ncnc32)[C@H](O)[C@@H]1O
6 | < 4.44 | COCC1=C[C@@H](n2cnc3c(N)ncnc32)[C@H](O)[C@@H]1O
